The source made the active and inactive calls.
Assays:
[1] = growth inhibition of PfATP4-mutant resistant parasites – NITD609-resistant line, SYBR Green, dry powder, dose response (AID 1159571); assay type: functional, cell-based;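 also: parasites synchronized at ring stage by sorbitol before testing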
[2] = toxicity to human HepG2 hepatoma cells – cell-based, plate reader, dry powder samples, cytotoxicity control, dose response (AID 1159569); assay type: functional;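 also: inhibitor potency with signal falling toward the positive control level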
[3] = growth inhibition of yeast DHODH-expressing 3D7 parasites – SYBR Green, dry powder samples, dose response (AID 1159570); assay type: functional, cell-based;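 also: parasite growth measured after 72 hours of compound exposure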
[4] = Dd2 parasite growth inhibition in erythrocytes – SYBR Green, dry powder samples, set 9, dose response (AID 1159568); assay type: functional, cell-based
[5] = P. falciparum Dd2 growth inhibitors, dose response, SYBR Green, cherry-picked samples (AID 1159567); assay type: functional, cell-based
[6] = Dd2 malaria parasite growth inhibition potency – SYBR Green, dry powder samples, dose response (AID 1159566); assay type: functional, cell-based;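 also: potency for growth inhibition with lower SYBR green DNA signal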
[7] = biological target: T1, Short transient receptor potential channel 4 (Mus musculus, UniProt Q9QUQ5); test: calcium entry via TRPC4 opening agents – cell-based, HEK293 TRPC4/mu-opioid, Fluo-4 calcium, dose response (AID 434937); assay type: functional
T1 sequence (Q9QUQ5 whole entry): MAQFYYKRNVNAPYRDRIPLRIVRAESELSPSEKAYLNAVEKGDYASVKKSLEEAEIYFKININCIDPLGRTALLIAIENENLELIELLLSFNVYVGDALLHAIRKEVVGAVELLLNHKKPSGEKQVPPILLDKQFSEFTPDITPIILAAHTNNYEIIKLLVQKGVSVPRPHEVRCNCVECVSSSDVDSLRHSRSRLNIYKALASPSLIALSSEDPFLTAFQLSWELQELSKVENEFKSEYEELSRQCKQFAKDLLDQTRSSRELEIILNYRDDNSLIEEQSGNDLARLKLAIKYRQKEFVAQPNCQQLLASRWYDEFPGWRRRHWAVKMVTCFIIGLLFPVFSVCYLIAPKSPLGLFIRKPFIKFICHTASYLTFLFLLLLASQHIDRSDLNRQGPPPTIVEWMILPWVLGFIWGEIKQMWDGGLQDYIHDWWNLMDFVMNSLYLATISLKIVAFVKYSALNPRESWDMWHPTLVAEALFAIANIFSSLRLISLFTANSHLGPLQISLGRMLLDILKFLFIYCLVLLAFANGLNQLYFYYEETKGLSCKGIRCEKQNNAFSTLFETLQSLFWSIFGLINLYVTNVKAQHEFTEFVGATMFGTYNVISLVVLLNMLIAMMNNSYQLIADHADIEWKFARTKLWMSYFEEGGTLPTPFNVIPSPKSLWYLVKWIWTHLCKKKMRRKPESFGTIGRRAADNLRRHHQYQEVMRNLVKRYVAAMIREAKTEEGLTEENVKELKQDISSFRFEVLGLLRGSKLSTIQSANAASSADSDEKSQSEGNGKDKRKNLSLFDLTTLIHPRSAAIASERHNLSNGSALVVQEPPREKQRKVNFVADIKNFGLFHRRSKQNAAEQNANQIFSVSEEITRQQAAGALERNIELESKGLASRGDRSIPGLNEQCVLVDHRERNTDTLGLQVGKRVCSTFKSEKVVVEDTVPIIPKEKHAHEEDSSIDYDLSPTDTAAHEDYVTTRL

[8] = HepG2 cell cytotoxicity, dose response, cytotoxicity control for non-replicating M. tuberculosis project (AID 489018); assay type: functional; conditions: Mycobacterium tuberculosis
[9] = Vero E6 cell cytotoxicity, dose response, cytotoxicity control for non-replicating M. tuberculosis project, secondary assay (AID 492998); assay type: functional, VeroE6; conditions: Vero C1008
cells = assay type: functional
[10] = THP-1 cell cytotoxicity, dose response, cytotoxicity control for non-replicating M. tuberculosis project (AID 489025); assay type: functional
[11] = biological target: T2, Microphthalmia-associated transcription factor (Homo sapiens, UniProt O75030); test: reducers of TRPM1 reporter luminescence, concentration series – cell-based, SK-MEL-5, cherry-picked, set 3, MITF inhibitor project, dose response (AID 493073); assay type: functional;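 also: SK-MEL-5 melanoma cells with luciferase driven by the MITF target TRPM1 promoter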
T2 sequence (O75030 whole entry): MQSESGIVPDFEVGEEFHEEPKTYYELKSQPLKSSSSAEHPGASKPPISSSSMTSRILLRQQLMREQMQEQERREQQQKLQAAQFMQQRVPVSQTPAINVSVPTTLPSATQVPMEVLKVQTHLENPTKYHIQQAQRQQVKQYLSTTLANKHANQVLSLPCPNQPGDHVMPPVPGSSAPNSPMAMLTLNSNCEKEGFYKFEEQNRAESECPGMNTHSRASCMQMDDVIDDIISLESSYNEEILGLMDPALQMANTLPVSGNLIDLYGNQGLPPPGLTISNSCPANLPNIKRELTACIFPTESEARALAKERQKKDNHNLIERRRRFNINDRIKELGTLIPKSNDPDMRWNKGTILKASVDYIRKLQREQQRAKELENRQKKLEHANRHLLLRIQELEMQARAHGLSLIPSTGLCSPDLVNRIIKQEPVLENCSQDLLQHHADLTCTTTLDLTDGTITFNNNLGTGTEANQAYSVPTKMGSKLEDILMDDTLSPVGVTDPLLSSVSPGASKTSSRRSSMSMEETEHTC

[12] = biological target: Voltage-gated inwardly rectifying potassium channel KCNH2 (Homo sapiens, UniProt Q12809); conditions: Potency;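 also: confirmatory quantitative high-throughput screen measuring inhibition of hERG channel activity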
Chain of Voltage-gated inwardly rectifying potassium channel KCNH2 (Q12809 whole entry): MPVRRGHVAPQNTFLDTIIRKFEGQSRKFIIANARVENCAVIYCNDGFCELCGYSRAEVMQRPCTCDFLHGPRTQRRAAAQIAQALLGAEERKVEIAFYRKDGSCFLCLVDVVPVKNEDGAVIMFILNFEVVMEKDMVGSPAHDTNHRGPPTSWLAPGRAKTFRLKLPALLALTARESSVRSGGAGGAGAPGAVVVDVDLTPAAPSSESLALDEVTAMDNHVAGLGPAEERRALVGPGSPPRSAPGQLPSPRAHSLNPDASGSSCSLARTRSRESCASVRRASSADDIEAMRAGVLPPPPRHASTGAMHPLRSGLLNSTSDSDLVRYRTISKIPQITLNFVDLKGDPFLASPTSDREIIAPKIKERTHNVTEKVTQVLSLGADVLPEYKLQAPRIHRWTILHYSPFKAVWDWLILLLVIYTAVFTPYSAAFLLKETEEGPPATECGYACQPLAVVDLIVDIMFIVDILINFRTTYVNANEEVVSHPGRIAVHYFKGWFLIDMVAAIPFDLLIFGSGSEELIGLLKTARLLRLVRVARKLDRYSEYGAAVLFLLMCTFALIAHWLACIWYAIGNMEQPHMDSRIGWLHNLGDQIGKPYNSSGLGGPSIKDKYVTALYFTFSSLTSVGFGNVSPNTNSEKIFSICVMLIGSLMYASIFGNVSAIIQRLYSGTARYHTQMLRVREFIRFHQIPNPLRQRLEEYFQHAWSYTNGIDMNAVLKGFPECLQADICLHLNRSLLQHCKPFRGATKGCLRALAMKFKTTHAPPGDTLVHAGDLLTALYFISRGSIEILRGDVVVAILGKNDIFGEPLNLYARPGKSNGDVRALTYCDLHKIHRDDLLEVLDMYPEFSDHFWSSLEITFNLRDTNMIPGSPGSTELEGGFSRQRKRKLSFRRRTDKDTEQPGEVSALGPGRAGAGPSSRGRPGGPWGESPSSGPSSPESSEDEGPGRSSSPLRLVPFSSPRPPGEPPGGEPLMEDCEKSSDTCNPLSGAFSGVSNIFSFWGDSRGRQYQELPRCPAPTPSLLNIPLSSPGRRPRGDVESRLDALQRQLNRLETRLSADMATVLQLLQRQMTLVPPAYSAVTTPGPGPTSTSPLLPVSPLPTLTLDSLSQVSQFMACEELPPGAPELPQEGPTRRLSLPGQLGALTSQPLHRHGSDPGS

Kallikrein-7 = Kallikrein-7 (Homo sapiens, UniProt P49862); test: Fluorescence Intensity-based biochemical primary high throughput dose response assay to identify activators of kallikrein-7 (K7) zymogen.
Chain of Kallikrein-7 (P49862 whole entry): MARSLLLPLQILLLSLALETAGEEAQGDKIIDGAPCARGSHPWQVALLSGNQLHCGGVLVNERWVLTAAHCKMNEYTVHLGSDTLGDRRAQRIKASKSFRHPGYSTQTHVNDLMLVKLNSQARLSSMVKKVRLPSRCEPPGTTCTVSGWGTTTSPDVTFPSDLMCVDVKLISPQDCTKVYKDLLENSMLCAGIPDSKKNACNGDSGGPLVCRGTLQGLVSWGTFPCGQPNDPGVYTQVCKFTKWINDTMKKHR

[13] = HEK-293T viability loss after treatment – luminescence, T-cell screen hits, cytotoxicity control for TCR NF-kB inhibitor project, dose response (AID 489026); assay type: functional, cell-based;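 also: cells exposed to compound about 14 hours before the viability readout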

SMILES: CC(C)NC(=O)N1[C@H](C#N)[C@H](c2ccc(C#CC3CCCCC3)cc2)[C@@H]1CO
- AC50 [1]: 0.676 µM (active)
- AC50 [2]: 28.6 µM (active)
- AC50 [3]: 1.58 µM (active)
- AC50 [4]: 0.148 µM (active)
- AC50 [5]: 0.99 µM (active)
- AC50 [6]: 0.495 µM (active)

SMILES: Cc1ccc(-n2cc(CNCCc3nc(C)c[nH]3)c(-c3ccc(F)cc3)n2)cc1
- EC50 [7]: 6.68 µM (active)
- CC50 [8]: 16.7 µM (active)
- CC50 [9]: 17.4 µM (active)
- IC50 (cells): 11.5 µM (active)
- CC50 [10]: 24.1 µM (active)

SMILES: Cc1onc(-c2ccccc2)c1C(=O)N/N=C/c1ccc([N+](=O)[O-])s1
- CC50 [8]: 18.8 µM (active)
- CC50 [9]: 11.4 µM (active)
- IC50 (cells): 14.9 µM (active)
- CC50 [10]: 13.5 µM (active)
- AC50 [11]: 5.35 µM (active)

SMILES: COc1ccc(NC(=O)/C=C/c2ccc(Cl)cc2)cc1
- AC50 [12]: 25.1 µM (inconclusive)

SMILES: Oc1nc(-c2ccccc2Cl)c2cc(F)ccc2n1
- EC50 (Kallikrein-7): > 69.5 µM (inactive)

SMILES: CCOC(=O)N1CCC2(CC1)NC(=O)c1ccccc1N2
- EC50 (Kallikrein-7): > 69.5 µM (inactive)

SMILES: C[C@H]1CN([C@@H](C)CO)C(=O)c2cc(/C=C/c3ccccc3)cnc2O[C@@H]1CN(C)C(=O)C1CCCCC1
- AC50 [1]: 0.464 µM (active)
- AC50 [2]: > 100 µM (inactive)
- AC50 [3]: 0.905 µM (active)
- AC50 [4]: 0.082 µM (active)
- AC50 [5]: 0.54 µM (active)
- AC50 [6]: 0.291 µM (active)

SMILES: Cc1ccc(O)c(NC(=O)c2cc(-c3ccccc3)on2)c1
- IC50 [13]: > 80 µM (inactive)

Source: ChEMBL document CHEMBL1201862, “PubChem BioAssay data set” (2004)
